From patent US8617827B2, “Photoactivable fluorescent dyes for optical microscopy and imaging techniques” (Max-Planck-Gesellschaft zur Foerderung der Wissenschaften …, priority 2009, dated 2013) come the findings set out here.

Data set [1] is described as follows: UV absorption and fluorescence spectra in solution. As to conditions: for absorption maximum (abs.) / emission maximum (em.): in MeOH, approximate, comparison. The data set is classed as physicochemical.
A short description of data set [2]: Preparative photolysis in methanol, light >320 nm. The data set is classed as physicochemical. As to conditions: MeOH, under N2, ambient temperature. On the procedure: Diazoketone 10 was subjected to photolysis in methanol in order to study the product distribution. Light with wavelengths >320 nm was used. The result of this experiment is presented in Scheme 6.
NMR spectra were recorded with Varian MERCURY 300 spectrometer at 300 (^1H) and 75.5 MHz (^13C and APT). All spectra are referenced to tetramethylsilane as an internal standard (δ=0 ppm) using the signals of the residual protons of CHCl3 (7.26 ppm) in CDCl3, CHD2OD (3.31 ppm) in CD3OD, HOD (4.79 ppm) in D2O or [D5] DMSO (2.50 ppm) in [D6] DMSO. Multiplicities of signals are described as follows: s=singlet, br. s=broad singlet, d=doublet, br. d=broad doublet, t=triplet, q=quartet, m=multiplet. Coupling constants (J) are given in Hz. Multiplicities in the ^13C NMR spectra were determined by APT (Attached Proton Test) measurements. […] Analytical TLC was performed on MERCK ready-to-use plates with silica gel 60 (F254). […]
Photolysis of diazoketone 10: A solution of compound 10 (70 mg, 0.15 mmol) in MeOH (150 mL) was placed into a reactor for photolysis, and nitrogen was bubbled for 30 min through the solution at room temperature with stirring. Then the lamp was turned on, and the reaction mixture was irradiated at ambient temperature with stirring under N2 for 40 min, until the starting compound could not be detected on TLC. […]

Consider `CCN(CC)c1ccc2c(-c3ccccc3C(=O)O)c3ccc(=[N+](CC)CC)cc-3oc2c1.[Cl-]` [rhodamine B, Rhodamine B], for which, in data set [1], the “absorption maximum (abs.)” value is given as “about 560 nm” and the “emission maximum (em.)” value is recorded as “ca. 580 nm”.

Take `CCN(CC)c1ccc2c(c1)Oc1cc(N(CC)CC)ccc1C21C(=[N+]=[N-])C(=O)c2ccccc21` [Compound 10]: the “irradiation time until starting compound could not be detected” value in data set [2] was determined as 40 min. Moreover, in data set [1] (MeCN), the “UV λmax” value came to 241 nm and the “ε at λmax” value is recorded as 59700.

5/6-carboxy rhodamine Q: in data set [1], the “absorption maximum (abs.)” value is given as “ca. 540 nm” and the “emission maximum (em.)” value is given as “about 560 nm”.

With `CN(C)c1ccc2c(-c3ccccc3C(=O)[O-])c3ccc(N(C)C)cc3[o+]c2c1` [TMR, N,N,N′,N′-Tetramethylrhodamine], in data set [1], the “absorption maximum (abs.)” value was “about 560 nm” and the “emission maximum (em.)” value was “ca. 580 nm”.
